Reference: patent US10750743B2, “Pyridazinone herbicides” (E.I. DU PONT DE NEMOURS AND COMPANY, priority 2015, dated 2020)

What was measured:
Format in all cases: in vivo
[1] = system: barnyardgrass (Echinochloa crus-galli); test: Test A preemergence, directed soil spray, visual injury rating; conditions: Echinochloa crus-galli, pre-emergence, 240 h, 0 is no effect, 100 is complete control, read-out: Plant response rating (0 to 100 scale), Barnyardgrass; for pest or weed control at 125 g/ha: 125 g ai/ha; for pest or weed control at 500 g/ha: 500 g ai/ha
In short: (§1)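 Compounds in a surfactant-containing solvent were applied as a directed soil spray preemergence, or postemergence to plants 2-10 cm tall at the one- to two-leaf stage, in loam-sand blend. After about 10 d in the greenhouse, injury was rated visually against untreated controls on a 0-100 scale (100 = complete control).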

kochia (Kochia scoparia) [2] = test: as above; conditions: Bassia scoparia, pre-emergence, 240 h, 0 is no effect, 100 is complete control, read-out: Plant response rating (0 to 100 scale), Kochia; for pest or weed control at 125 g/ha: 125 g ai/ha; for pest or weed control at 500 g/ha: 500 g ai/ha
In short: as §1

[3] = system: pigweed (Amaranthus retroflexus); test: as above; conditions: Amaranthus retroflexus, pre-emergence, 240 h, 0 is no effect, 100 is complete control, read-out: Plant response rating (0 to 100 scale), Pigweed; for pest or weed control at 125 g/ha: 125 g ai/ha; for pest or weed control at 500 g/ha: 500 g ai/ha
In short: as §1

[4] = system: ragweed (common ragweed, Ambrosia elatior); test: as above; conditions: Ambrosia artemisiifolia, pre-emergence, 240 h, 0 is no effect, 100 is complete control, read-out: Plant response rating (0 to 100 scale), Ragweed; for pest or weed control at 125 g/ha: 125 g ai/ha; for pest or weed control at 500 g/ha: 500 g ai/ha
In short: as §1

[5] = system: ryegrass, It. (Italian ryegrass, Lolium multiflorum); test: as above; conditions: Lolium multiflorum, pre-emergence, 240 h, 0 is no effect, 100 is complete control, read-out: Plant response rating (0 to 100 scale), Ryegrass, It.; for pest or weed control at 125 g/ha: 125 g ai/ha; for pest or weed control at 500 g/ha: 500 g ai/ha
In short: as §1

[6] = system: barnyardgrass (Echinochloa crus-galli); test: Test B flooded paddy test, visual rating; conditions: Echinochloa crus-galli, 360 h; Flood, 250 g ai/ha, applied to paddy water, rated after 13 to 15 d; read-out: Barnyardgrass plant response rating (0 to 100 scale, 0 is no effect, 100 is complete control)
In short: (§2)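 Plants grown to the 2-leaf stage. At treatment, pots were flooded to 3 cm above the soil, compound was applied directly to the paddy water, and that depth was held throughout. After 13 to 15 d in the greenhouse, response was rated visually against controls on a 0 (no effect) to 100 (complete control) scale.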

[7] = system: ducksalad (Heteranthera limosa); test: Test B flooded paddy test, visual rating; conditions: Heteranthera limosa, 360 h; Flood, 250 g ai/ha, applied to paddy water, rated after 13 to 15 d; read-out: Ducksalad plant response rating (0 to 100 scale, 0 is no effect, 100 is complete control)
In short: as §2

rice (Oryza sativa) = test: Test B flooded paddy test, visual rating; conditions: Oryza sativa, 360 h; Flood, 250 g ai/ha, applied to paddy water, rated after 13 to 15 d; read-out: Rice plant response rating (0 to 100 scale, 0 is no effect, 100 is complete control)
In short: as §2

[8] = system: sedge, umbrella (small-flower umbrella sedge, Cyperus difformis); test: Test B flooded paddy test, visual rating; conditions: Cyperus difformis, 360 h; Flood, 250 g ai/ha, applied to paddy water, rated after 13 to 15 d; read-out: Sedge, Umbrella plant response rating (0 to 100 scale, 0 is no effect, 100 is complete control)
In short: as §2

[9] = system: barnyardgrass (Echinochloa crus-galli); test: Test A postemergence application, visual injury rating; conditions: Echinochloa crus-galli, post-emergence, 240 h, 0 to 100 scale, 0 no effect, 100 complete control, read-out: Barnyardgrass plant response rating; for pest or weed control at 125 g/ha: 125 g ai/ha; for pest or weed control at 500 g/ha: 500 g ai/ha
In short: as §1

[10] = system: blackgrass (Alopecurus myosuroides); test: as above; conditions: Alopecurus myosuroides, post-emergence, 240 h, 0 to 100 scale, 0 no effect, 100 complete control, read-out: Blackgrass plant response rating; for pest or weed control at 125 g/ha: 125 g ai/ha; for pest or weed control at 500 g/ha: 500 g ai/ha
In short: as §1

corn (Zea mays) = test: as above; conditions: Zea mays, post-emergence, 240 h, 0 to 100 scale, 0 no effect, 100 complete control, read-out: Corn plant response rating; for plant injury at 125 g/ha: 125 g ai/ha; for plant injury at 500 g/ha: 500 g ai/ha
In short: as §1

[11] = system: foxtail, giant (giant foxtail, Setaria faberii); test: as above; conditions: Setaria faberi, post-emergence, 240 h, 0 to 100 scale, 0 no effect, 100 complete control, read-out: Foxtail, Giant plant response rating; for pest or weed control at 125 g/ha: 125 g ai/ha; for pest or weed control at 500 g/ha: 500 g ai/ha
In short: as §1

[12] = system: galium (catchweed bedstraw, Galium aparine); test: as above; conditions: Galium, post-emergence, 240 h, 0 to 100 scale, 0 no effect, 100 complete control, read-out: Galium plant response rating; for pest or weed control at 125 g/ha: 125 g ai/ha; for pest or weed control at 500 g/ha: 500 g ai/ha
In short: as §1

kochia (Kochia scoparia) [13] = test: as above; conditions: Bassia scoparia, post-emergence, 240 h, 0 to 100 scale, 0 no effect, 100 complete control, read-out: Kochia plant response rating; for pest or weed control at 125 g/ha: 125 g ai/ha; for pest or weed control at 500 g/ha: 500 g ai/ha
In short: as §1

[14] = system: pigweed (Amaranthus retroflexus); test: as above; conditions: Amaranthus retroflexus, post-emergence, 240 h, 0 to 100 scale, 0 no effect, 100 complete control, read-out: Pigweed plant response rating; for pest or weed control at 125 g/ha: 125 g ai/ha; for pest or weed control at 500 g/ha: 500 g ai/ha
In short: as §1

[15] = system: ragweed (common ragweed, Ambrosia elatior); test: as above; conditions: Ambrosia artemisiifolia, post-emergence, 240 h, 0 to 100 scale, 0 no effect, 100 complete control, read-out: Ragweed plant response rating; for pest or weed control at 125 g/ha: 125 g ai/ha; for pest or weed control at 500 g/ha: 500 g ai/ha
In short: as §1

[16] = system: ryegrass, It. (Italian ryegrass, Lolium multiflorum); test: as above; conditions: Lolium multiflorum, post-emergence, 240 h, 0 to 100 scale, 0 no effect, 100 complete control, read-out: Ryegrass, It. plant response rating; for pest or weed control at 125 g/ha: 125 g ai/ha; for pest or weed control at 500 g/ha: 500 g ai/ha
In short: as §1

[17] = system: wheat (Triticum aestivum); test: as above; conditions: Triticum aestivum, post-emergence, 240 h, 0 to 100 scale, 0 no effect, 100 complete control, read-out: Wheat plant response rating; for plant injury at 125 g/ha: 125 g ai/ha; for plant injury at 500 g/ha: 500 g ai/ha
In short: as §1

SMILES	pest or weed control at 125 g/ha [1] [%]	pest or weed control at 500 g/ha [1] [%]	pest or weed control at 125 g/ha (kochia (Kochia scoparia) [2]) [%]	pest or weed control at 500 g/ha (kochia (Kochia scoparia) [2]) [%]	pest or weed control at 125 g/ha [3] [%]	pest or weed control at 500 g/ha [3] [%]	pest or weed control at 125 g/ha [4] [%]	pest or weed control at 500 g/ha [4] [%]	pest or weed control at 125 g/ha [5] [%]	pest or weed control at 500 g/ha [5] [%]	pest or weed control at 250 g/ha [6] [%]	pest or weed control at 250 g/ha [7] [%]	plant injury at 250 g/ha (rice (Oryza sativa)) [%]	pest or weed control at 250 g/ha [8] [%]	pest or weed control at 125 g/ha [9] [%]	pest or weed control at 500 g/ha [9] [%]	pest or weed control at 125 g/ha [10] [%]	pest or weed control at 500 g/ha [10] [%]	plant injury at 125 g/ha (corn (Zea mays)) [%]	plant injury at 500 g/ha (corn (Zea mays)) [%]	other results
Cc1cc2cccc(-c3c(O)c(C)nn(C)c3=O)c2o1 [Compound 12, 5-hydroxy-2,6-dimethyl-4-(2-methyl-7-benzofuranyl)-3(2H)-pyridazinone]	0	50	60	100	60	100	60	80	100	100	0	0	0	0	10	30	40	80	0	10	pest or weed control at 125 g/ha [11]: 20%; pest or weed control at 500 g/ha [11]: 40%; pest or weed control at 125 g/ha [12]: 80%; pest or weed control at 500 g/ha [12]: 90%; pest or weed control at 125 g/ha (kochia (Kochia scoparia) [13]): 0%; pest or weed control at 500 g/ha (kochia (Kochia scoparia) [13]): 50%; pest or weed control at 125 g/ha [14]: 30%; pest or weed control at 500 g/ha [14]: 50%; pest or weed control at 125 g/ha [15]: 40%; pest or weed control at 500 g/ha [15]: 80%; pest or weed control at 125 g/ha [16]: 90%; pest or weed control at 500 g/ha [16]: 100%; plant injury at 125 g/ha [17]: 0%; plant injury at 500 g/ha [17]: 20%
Cc1nn(C)c(=O)c(-c2cccc3snc(C)c23)c1O [Compound 25, 5-hydroxy-2,6-dimethyl-4-(3-methyl-1,2-benzisothiazol-4-yl)-3 (2H)-pyridazinone]	0	40	100	100	80	100	40	70	0	30	0	0	0	0	20	40	20	30	0	20	pest or weed control at 125 g/ha [11]: 30%; pest or weed control at 500 g/ha [11]: 80%; pest or weed control at 125 g/ha [12]: 80%; pest or weed control at 500 g/ha [12]: 90%; pest or weed control at 125 g/ha (kochia (Kochia scoparia) [13]): 100%; pest or weed control at 500 g/ha (kochia (Kochia scoparia) [13]): 100%; pest or weed control at 125 g/ha [14]: 90%; pest or weed control at 500 g/ha [14]: 90%; pest or weed control at 125 g/ha [15]: 70%; pest or weed control at 500 g/ha [15]: 90%; pest or weed control at 125 g/ha [16]: 20%; pest or weed control at 500 g/ha [16]: 70%; plant injury at 125 g/ha [17]: 20%; plant injury at 500 g/ha [17]: 30%
Cc1ccc2sccc2c1-c1c(O)c(C)nn(C)c1=O [Compound 29, 5-hydroxy-2,6-dimethyl-4-(5-methylbenzo[b]thien-4-yl)-3(2H)-pyridazinone]	10	90	20	90	40	100	30	90	90	100	0	0	0	0	20	70	70	80	20	50	pest or weed control at 125 g/ha [11]: 20%; pest or weed control at 500 g/ha [11]: 80%; pest or weed control at 125 g/ha [12]: 90%; pest or weed control at 500 g/ha [12]: 100%; pest or weed control at 125 g/ha (kochia (Kochia scoparia) [13]): 90%; pest or weed control at 500 g/ha (kochia (Kochia scoparia) [13]): 100%; pest or weed control at 125 g/ha [14]: 90%; pest or weed control at 500 g/ha [14]: 100%; pest or weed control at 125 g/ha [15]: 80%; pest or weed control at 500 g/ha [15]: 80%; pest or weed control at 125 g/ha [16]: 100%; pest or weed control at 500 g/ha [16]: 90%; plant injury at 125 g/ha [17]: 20%; plant injury at 500 g/ha [17]: 30%
